Assay results reported in publication PMC10531055, “Molecular Mechanism of Mutational Disruption of DCLK1 Autoinhibition Provides a Rationale for Inhibitor Screening” (International Journal of Molecular Sciences, 2023).

Target: T1, DCLK1 (Doublecortin-like kinase 1) (Homo sapiens, UniProt O15075)
T1 construct: kinase domain (KD)
T1 sequence (O15075 390-647 limits assumed): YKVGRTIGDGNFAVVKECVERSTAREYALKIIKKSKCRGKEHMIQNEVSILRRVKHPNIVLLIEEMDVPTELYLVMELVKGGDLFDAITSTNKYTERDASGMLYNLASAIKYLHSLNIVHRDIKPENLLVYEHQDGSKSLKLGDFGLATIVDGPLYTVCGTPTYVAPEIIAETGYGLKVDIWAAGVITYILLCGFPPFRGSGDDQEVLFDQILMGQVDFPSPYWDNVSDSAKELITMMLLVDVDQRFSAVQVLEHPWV
Assay: SPR (Biacore X-100, kinase domain immobilized on CM5 chip)
Format: binding

Kd: 1.92 µM
SMILES: CCN1CCN(Cc2ccc(Nc3ncc(F)c(-c4cc(F)c5nc(C)n(C(C)C)c5c4)n3)nc2)CC1 [6ZV, Abemaciclib]
